Data from ChEMBL document CHEMBL1124275, “Synthesis and evaluation of multisubstrate inhibitors of an oncogene-encoded tyrosine-specific protein kinase. 1” (J Med Chem, 1988).

What was measured:
[1] = Inhibition of Phosphorylase (serine) Kinase activity
[2] = molecular target: T1, Tyrosine-protein kinase transforming protein Abl (Abelson murine leukemia virus, UniProt P00521); assay: Inhibition of p60-vabl tyrosine kinase isolated from Abelson murine leukemia virus (A-MuLV)
T1 sequence (P00521 whole entry): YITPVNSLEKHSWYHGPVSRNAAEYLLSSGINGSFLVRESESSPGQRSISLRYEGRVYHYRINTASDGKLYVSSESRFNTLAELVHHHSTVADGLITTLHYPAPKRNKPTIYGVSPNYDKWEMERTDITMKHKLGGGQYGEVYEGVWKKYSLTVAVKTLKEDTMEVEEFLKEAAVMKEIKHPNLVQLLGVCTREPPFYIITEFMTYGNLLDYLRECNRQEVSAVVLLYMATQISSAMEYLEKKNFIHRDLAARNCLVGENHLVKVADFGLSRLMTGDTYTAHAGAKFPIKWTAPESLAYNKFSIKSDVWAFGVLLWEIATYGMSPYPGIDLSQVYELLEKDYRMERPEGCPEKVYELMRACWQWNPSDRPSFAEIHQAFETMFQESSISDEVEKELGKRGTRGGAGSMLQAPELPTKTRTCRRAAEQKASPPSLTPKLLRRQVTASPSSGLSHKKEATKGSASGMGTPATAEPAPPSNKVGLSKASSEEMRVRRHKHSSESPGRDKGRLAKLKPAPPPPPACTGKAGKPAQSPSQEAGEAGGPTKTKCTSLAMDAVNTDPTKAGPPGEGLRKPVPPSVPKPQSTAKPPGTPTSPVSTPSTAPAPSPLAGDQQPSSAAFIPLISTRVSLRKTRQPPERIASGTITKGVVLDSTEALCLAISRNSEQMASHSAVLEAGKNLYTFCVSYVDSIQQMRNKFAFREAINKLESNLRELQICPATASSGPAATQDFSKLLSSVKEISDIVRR

SMILES	IC50 [1] [µM]	IC50 [2] [µM]
Nc1ncnc2c1ncn2[C@@H]1O[C@H](COC(=O)c2ccc(S(=O)(=O)Nc3ccccc3)cc2)[C@@H](O)[C@H]1O	25	19
CC(=O)NC(Cc1ccc(OS(=O)(=O)c2ccc(C(=O)OC[C@H]3O[C@@H](n4cnc5c(N)ncnc54)[C@H](O)[C@@H]3O)cc2)cc1)C(N)=O (some centres undefined)	–	120
Nc1ncnc2c1ncn2[C@@H]1O[C@H](COC(=O)c2ccc(S(=O)(=O)NCCc3ccccc3)cc2)[C@@H](O)[C@H]1O	–	50
Nc1ncnc2c1ncn2[C@@H]1O[C@H](COC(=O)c2ccc(S(=O)(=O)Oc3ccccc3)cc2)[C@@H](O)[C@H]1O	80	170
Nc1ncnc2c1ncn2[C@@H]1O[C@H](COC(=O)c2ccc(S(=O)(=O)NCCCc3ccccc3)cc2)[C@@H](O)[C@H]1O	50	56
Nc1ncnc2c1ncn2[C@@H]1O[C@H](COC(=O)c2ccc(S(=O)(=O)F)cc2)[C@@H](O)[C@H]1O	250	150
Nc1ncnc2c1ncn2[C@@H]1O[C@H](COC(=O)c2ccc(S(N)(=O)=O)cc2)[C@@H](O)[C@H]1O	60	120
CS(=O)(=O)c1ccc(C(=O)OC[C@H]2O[C@@H](n3cnc4c(N)ncnc43)[C@H](O)[C@@H]2O)cc1	–	63
Nc1ncnc2c1ncn2[C@@H]1O[C@H](COC(=O)c2ccc(S(=O)(=O)NCc3ccccc3)cc2)[C@@H](O)[C@H]1O	–	45
